Data published in US20230172958A1, “USE OF COMPOUNDS FOR TREATING VIRAL INFECTIONS” (priority 2020, published 2023).
Entries after “also recorded” stand apart in the source; their conditions may differ. Read-outs that look alike come from different tables or passages of the source.

Assays:
SARS-CoV-2 [1] = assay: Neutral Red reduction of virus-induced cytopathic effect (primary CPE assay) in Vero 76 cells; assay type: cell-based; conditions: Severe acute respiratory syndrome coronavirus 2, virus-inhibitory
[2] = Pre-clinical GLP and non-GLP toxicity and safety studies; assay type: in vivo
Protocol: Various pre-clinical GLP (Good Laboratory Practice) and non-GLP studies were performed with the compound of Formula E. These included 7-day and 28- days studies on rats and dogs, acute toxicity in rats, mice and dogs. The effect of the compound of Formula E on respiratory function, nervous system and cardiovascular system, bacterial mutation, metabolism, CaCo2 permeability, protein binding and cytochrome effect was also studied.

SARS-CoV-2 [3] = assay: Antiviral screening by qRT-PCR in VeroE6 cells; assay type: cell-based; conditions: Severe acute respiratory syndrome coronavirus 2, Vero C1008, 10 μM
[4] = system: Human Peripheral Blood Lymphocytes; assay: MTT toxicity assay on normal cells; assay type: cell-based; conditions: 48 hours
Protocol: Toxicity studies of compounds of the present invention on normal cells The toxicity study was performed on Human Peripheral Blood Lymphocytes obtained differential centrifugation of defibrinated blood. MTT assay for compound of the present invention was performed to determine its toxicity. MTT assay is a simple and sensitive assay where, metabolic reducing activity of the cells is measured. It was carried out in the following manner.
A required volume of cell suspension was prepared as per the cell plating efficiency. 200 μl of prepared cell suspension was added in labelled 96 well plates and the plates were placed in an incubator for 18-24 hours at 37° C. and 5% CO2. Then, 2 μl of respective compound dilution was added and the plates were placed in the incubator for 48 hours at 37° C. and 5% CO2. The suspension was aspirated from the plates and 100 μl of working MTT solution (0.5 mg/ml MTT prepared from 5 mg/ml MTT stock in 1× complete media) was added. The plates were incubated in the incubator for 4 hours at 37° C. and 5% CO2. The plates were spinned down, supernatant removed, 200 μl DMSO was added, mixed gently and placed in the incubator for 10 minutes at 37° C. and 5% CO2. The absorbance at 570 nm was read and percentage viability and IC50 value of the compounds was calculated using regression analysis.

[5] = Cytotoxicity by Hoechst 33342 / Sytox orange staining; assay type: cell-based; conditions: African green monkey, Vero E6 cells
Protocol: The assay was done in a 96 well plate format in 3 wells for each sample. 1×10e4 Vero E6 cells were plated per well and incubated at 37° C. overnight for monolayer formation. Next day, cells were incubated with the test substance (TS) at the indicated concentration with final DMSO concentration being 0.5%. The Control cells were incubated with 0.5% DMSO only. 24 and 48 hours later, cells were stained with Hoechst 33342 and Sytox orange dye. Images were taken at 10×, 16 images per well, which covers 90% of the well area using ImageXpress Microconfocal (Molecular Devices). Hoechst 33342 nucleic acid stain is a popular cell-permanent nuclear counterstain that emits blue fluorescence when bound to dsDNA. It stains all the live and dead cells. Sytox orange dye stains the nucleic acid in the cells with compromised membranes. This stain is an indicator of cell death. First, the software will count total number of cells in the Hoechst image. In the Sytox image, it will count, among Hoechst positive cells, how many cells are positive for Sytox.

[6] = Neutral Red toxicity assay, uninfected cultures; assay type: cell-based; conditions: African green monkey, Vero 76 cells (uninfected monolayers), cell-inhibitory
Protocol: Confluent or near-confluent cell culture monolayers of Vero 76 cells were prepared in 96-well disposable microplates the day before testing. Cells were maintained in MEM (Minimum Essential Medium Eagle) supplemented with 5% FBS (Fetal Bovine Serum). For antiviral assays the same medium was used but with FBS reduced to 2% and supplemented with 50-μg/ml gentamicin.
Compounds were dissolved in DMSO, saline or the diluent. […] The test compound was prepared at four serial log10 concentrations, usually 0.1, 1.0, 10, and 100 μg/ml or μM. Lower concentrations were used when insufficient compound was supplied. Five microwells were used per dilution: three for infected cultures and two for uninfected toxicity cultures. Controls for the experiment consisted of six microwells that were infected and not treated (virus controls) and six that were untreated and uninfected (cell controls) on every plate. A known active drug was tested in parallel as a positive control drug using the same method as was applied for test compounds. The positive control was tested with every test run.
Growth media was removed from the cells and the test compound was applied in 0.1 ml volume to wells at 2× concentration. Virus, normally at ˜60 CCID50 (50% cell culture infectious dose) in 0.1 ml volume is added to the wells designated for virus infection. Medium devoid of virus was placed in toxicity control wells and cell control wells. […] The plates were then stained with 0.011% neutral red for approximately two hours at 37° C. in a 5% CO2 incubator. The neutral red medium was removed by complete aspiration, and the cells may be rinsed 1× with phosphate buffered solution (PBS) to remove residual dye. The PBS was completely removed, and the incorporated neutral red was eluted with 50% Sorensen's citrate buffer/50% ethanol for at least 30 minutes. Neutral red dye penetrates into living cells, thus, the more intense the red color, the larger the number of viable cells present in the wells. The dye content in each well was quantified using a spectrophotometer at 540 nm wavelength. The dye content in each set of wells was converted to a percentage of dye present in untreated control wells using a Microsoft Excel computer-based spreadsheet and normalized based on the virus control. The 50% effective (EC50, virus-inhibitory) concentrations and 50% cytotoxic (CC50, cell-inhibitory) concentrations are then calculated by regression analysis. The quotient of CC50 divided by EC50 gives the selectivity index (SI) value.

SARS-CoV-2 [7] = assay type: in vivo, golden Syrian hamster

COC1COC(Oc2ccc(-c3ccc4c(c3)OCO4)c3ccccc23)C(O)C1OC (stereo not drawn) [Compound of Formula E, 2-(1-(benzo[d][1,3]dioxol-5-yl)naphthalen-4-yloxy)-tetrahydro-4,5-dimethoxy-2H-pyran-3-ol]
EC50 (SARS-CoV-2 [1]): 0.35 µg/mL | toxic or adverse effect at higher dose ([2]; 2000 mg/kg in rats, mice and dogs): did not show any toxic or adverse effect | toxicity in pre-clinical studies ([2]; 7-day and 28-days studies on rats and dogs, acute toxicity in rats, mice and dogs): non-toxic | clastogenicity ([2]; in vivo): non-clastogenic | effect on the respiratory, nervous and cardiovascular system ([2]; in vivo): no effect | inhibition at 10 µM (SARS-CoV-2 [3]; 24 hours post infection, E gene, read-out: % inhibition of virus replication 24 hours post infection E): 75.4% | inhibition at 10 µM (SARS-CoV-2 [3]; 24 hours post infection, N gene, read-out: % inhibition of virus replication 24 hours post infection N): 81.3% | inhibition at 10 µM (SARS-CoV-2 [3]; 48 hours post infection, E gene, read-out: % inhibition of virus replication 48 hours post infection E): 99.5% | inhibition at 10 µM (SARS-CoV-2 [3]; 48 hours post infection, N gene, read-out: % inhibition of virus replication 48 hours post infection N): 99.7% | IC50 (μM) [4]: No activity (Nontoxic) | logP (physchem): ~4 | viability at 24 h, 10 µM ([5]; 24 hours, read-out: % Cell viability 24 hours): 99.6% | viability at 48 h, 10 µM ([5]; 48 hours, read-out: % Cell viability 48 hours): 77.8% | CC50 [6]: 2.5 µg/mL | IL4 mRNA expression in splenocytes (SARS-CoV-2 [7]; across all the groups): dramatic inhibition | body mass loss post infection (SARS-CoV-2 [7]; hamster, in vivo): did not lose weight post infection; also recorded: second best recovery; also recorded: marginal protection | gross lung pneumonitis and inflammation, day 4 post challenge (SARS-CoV-2 [7]; hamster, in vivo): significantly lesser regions of pneumonitis and inflammation | histological parameters and overall disease score (H&E) (SARS-CoV-2 [7]; hamster, in vivo): best protection | histological protection (H&E) (SARS-CoV-2 [7]; hamster, in vivo): little, or no protection | pneumonitis, alveolar epithelial injury and lung inflammation score (H&E) (SARS-CoV-2 [7]; hamster, in vivo): good reduction | reduction in relative lung viral load (N2 gene) (SARS-CoV-2 [7]; hamster, in vivo): 5 fold | splenomegaly (SARS-CoV-2 [7]; hamster, in vivo): significant mitigation | spleen size (SARS-CoV-2 [7]; other drug groups (δI/200, δII/800, δIV/400)): little or no reduction | overall protective efficacy against SARS-CoV-2 infection (SARS-CoV-2 [7]; pre-treatment with 400 mpk, compared to Remdesivir): decreased lung viral load and pneumonitis compared to Remdesivir | IL17A mRNA expression in splenocytes (SARS-CoV-2 [7]; δI/200): inhibition | INFγ mRNA expression in splenocytes (SARS-CoV-2 [7]; δI/200): highest induction | IL17A mRNA expression in splenocytes (SARS-CoV-2 [7]; δIII/p400): inhibition
